In patent US8829203B2, “3′,6-substituted indirubins and their biological applications” (Centre National de la Recherche Scientifique (CNRS), priority 2008, dated 2014):

Experiments:
GSK-3α/β = GSK-3α/β kinase assay (GS-1 substrate, 15 μM ATP); format: biochemical, porcine; details: 30° C., 30 min, read-out: GSK3 IC50
Protocol: (§1) Blank values were subtracted and activities calculated as pmoles of phosphate incorporated during a […] incubation. The activities were expressed in % of the maximal activity, i.e. in the absence of inhibitors. Controls were performed with appropriate dilutions of dimethylsulfoxide. Phosphorylation of the substrate was assessed by the P81 phosphocellulose assay.
GSK-3α/β was purified from porcine brain by affinity chromatography on immobilized axin^5. […] ATP (3,000 Ci/mmol; 10 mCi/ml) in a final volume of 30 μl. After 30 min. incubation at 30° C., 25 μl aliquots of supernatant were processed as described above.

CDK1/cyclin B = CDK1/cyclin B kinase assay (histone H1, 15 μM ATP); format: biochemical, starfish (Marthasterias glacialis); details: 30° C., 30 min
CDK5/p25 = CDK5/p25 (Homo sapiens, UniProt Q00535); assay: CDK5/p25 kinase assay (histone H1, 15 μM ATP); format: biochemical; details: 30° C., 30 min
Protocol: as §1
CDK5/p25 was reconstituted by mixing equal amounts of recombinant human CDK5 and p25 expressed in E. coli as GST (Glutathione-S-transferase) fusion proteins and purified by affinity chromatography on glutathione-agarose (p25 is a truncated version of p35, the 35 kDa CDK5 activator). Its activity was assayed with histone H1 in buffer C as described for CDK1/cyclin B.

[1] = test system: Per2 promoter (PPer2) activity, Rat-1 fibroblasts; assay: Luminescence assay of circadian rhythmicity, Rat-1 fibroblasts PPer2::Fluc; format: cell-based; details: 10 μM, left continuously, monitored 4 days
Protocol: FIGS. 3a and 3b: the alteration of the circadian period in mammalian fibroblasts by the indirubin derivatives. Rat-1 fibroblasts stably transfected with a PPer2::Fluc reporter construct show a robust circadian rhythm of luminescence as a gauge of clock-controlled Per2 promoter (PPer2) activity. Cells were cultured up to 100% confluence and treated for 2 h with 0.1 μM dexamethasone to synchronize the oscillators. The medium was then replaced with assay medium supplemented with 0.1 mM luciferin and the luminescence rhythm was monitored for 4 days or more. Compounds were added to the culture dishes at 10 μM and left continuously. DMSO was used as a solvent control. Regression analyses were used to determine period and phase of the luminescence rhythms. 3a. Time-course of a typical luminescence rhythm recorded in control cells (◯) or cells treated with indirubin 15 (•). White arrows indicate the peaks of luminescence in control cells, black arrows indicate the peaks of luminescence in indirubin 15 treated cells. 3b. Period lengths calculated in cells exposed to various compounds. C, control; K, kenpaullone.
The cells were cultured in DMEM (11965-092, GIBCO/Invitrogen) supplemented with 5% FBS, 50 units/ml penicillin, and 50 μg/ml streptomycin in a 5% CO2 incubator at 37° C. […] The luminescence rhythm was monitored in a LumiCycle (Actimetrics Inc., Evanston, Ill., USA). […]

Chain of CDK5/p25 (Q00535 whole entry): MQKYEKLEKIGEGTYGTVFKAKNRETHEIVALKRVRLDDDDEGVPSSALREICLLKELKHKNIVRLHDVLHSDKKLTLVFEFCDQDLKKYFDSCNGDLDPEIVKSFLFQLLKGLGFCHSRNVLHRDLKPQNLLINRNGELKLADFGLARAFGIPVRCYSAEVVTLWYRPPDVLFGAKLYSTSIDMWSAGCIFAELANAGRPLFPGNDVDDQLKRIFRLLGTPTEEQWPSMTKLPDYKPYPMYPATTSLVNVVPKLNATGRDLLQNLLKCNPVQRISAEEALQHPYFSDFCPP
Chain of CDK5/p25 (Q15078 99-307 partner limits assumed): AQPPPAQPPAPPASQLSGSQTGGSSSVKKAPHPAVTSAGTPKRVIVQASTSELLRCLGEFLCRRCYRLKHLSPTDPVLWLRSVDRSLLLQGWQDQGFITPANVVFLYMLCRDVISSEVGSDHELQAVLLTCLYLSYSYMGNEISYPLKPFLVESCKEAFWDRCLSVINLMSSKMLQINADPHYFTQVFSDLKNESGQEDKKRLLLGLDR

- IC50 (GSK-3α/β): 14 nM
- IC50 (CDK1/cyclin B): 900 nM
- IC50 (CDK5/p25): 310 nM
Structure (SMILES): O=C1Nc2cc(Br)ccc2/C1=C1/Nc2ccccc2/C1=N\OCCN1CCN(CCOCCO)CC1 [Cpd 15, (2′Z-3′E)-6-Bromoindirubin-3′-[O-(2-{4-[2-(2-hydroxyethoxy)-ethyl]piperazin-1-yl}ethyl)oxime]]
- Circadian period length of luminescence rhythm [1]: gradual shortening of the period length
